According to patent US6960574B2, “Antagonists of RF-amide neuropeptides” (University of Florida, priority 2002, dated 2005):
Peptide text beside a SMILES is read from it. * marks the point of attachment. Dansyl = CN(C)c1cccc2c(S(=O)(=O)*)cccc12

Tested on: receptor labeled by the radioiodinated analogue of 1 (4, [125I]-YLFQPQRF-NH2); neuropeptide FF receptor
Assay: Competitive radioligand binding against 4 ([125I]Y8F-amide)
Conditions: mixture-based positional scanning; difference from averaged radioligand displacement of whole library (0); about 80 a.u. = 10-fold change in Ki

| Compound | Relative Binding Index (RBI) |
| --- | --- |
| CN(C)c1cccc2c(S(=O)(=O)N[C@@H](CCC(=O)O)C(=O)N[C@@H](CO)C(=O)N[C@@H](CCCNC(=N)N)C(N)=O)cccc12 [Dansyl-ESR-amide] (Dansyl-Glu-Ser-Arg-NH2) | 37 a.u. |
| CSCC[C@H](NS(=O)(=O)c1cccc2c(N(C)C)cccc12)C(=O)N[C@H](C(=O)N[C@@H](CCCNC(=N)N)C(N)=O)[C@@H](C)O [Dansyl-MTR-amide] (Dansyl-Met-Thr-Arg-NH2) | −38 a.u. |
| CC(C)C[C@H](NS(=O)(=O)c1cccc2c(N(C)C)cccc12)C(=O)N[C@@H](CCC(=O)O)C(=O)N[C@@H](CCCNC(=N)N)C(N)=O [Dansyl-LER-amide] (Dansyl-Leu-Glu-Arg-NH2) | −32 a.u. |
| CN(C)c1cccc2c(S(=O)(=O)N[C@@H](Cc3ccccc3)C(=O)N[C@@H](CCC(=O)O)C(=O)N[C@@H](CCCNC(=N)N)C(N)=O)cccc12 [Dansyl-FER-amide] (Dansyl-Phe-Glu-Arg-NH2) | 9 a.u. |
| CN(C)c1cccc2c(S(=O)(=O)N[C@@H](CO)C(=O)N[C@@H](CO)C(=O)N[C@@H](CCCNC(=N)N)C(N)=O)cccc12 [Dansyl-SSR-amide] (Dansyl-Ser-Ser-Arg-NH2) | 37 a.u. |
| CN(C)c1cccc2c(S(=O)(=O)N[C@@H](Cc3ccc(O)cc3)C(=O)N[C@@H](CC(=O)O)C(=O)N[C@@H](CCCNC(=N)N)C(N)=O)cccc12 [Dansyl-YDR-amide] (Dansyl-Tyr-Asp-Arg-NH2) | −11 a.u. |
| C[C@H](NS(=O)(=O)c1cccc2c(N(C)C)cccc12)C(=O)N[C@H](C(=O)N[C@@H](CCCNC(=N)N)C(N)=O)[C@@H](C)O [Dansyl-ATR-amide] (Dansyl-Ala-Thr-Arg-NH2) | 18 a.u. |
| C[C@@H](O)[C@H](NC(=O)[C@H](CCCCN)NS(=O)(=O)c1cccc2c(N(C)C)cccc12)C(=O)N[C@@H](CCCNC(=N)N)C(N)=O [Dansyl-KTR-amide] (Dansyl-Lys-Thr-Arg-NH2) | 30 a.u. |
| CC[C@H](C)[C@H](NC(=O)[C@H](C)NS(=O)(=O)c1cccc2c(N(C)C)cccc12)C(=O)N[C@@H](CCCNC(=N)N)C(N)=O [Dansyl-AIR-amide] (Dansyl-Ala-Ile-Arg-NH2) | 19 a.u. |
| CC(C)C[C@H](NS(=O)(=O)c1cccc2c(N(C)C)cccc12)C(=O)N[C@@H](Cc1ccccc1)C(=O)N[C@@H](CCCNC(=N)N)C(N)=O [Dansyl-LFR-amide] (Dansyl-Leu-Phe-Arg-NH2) | −33 a.u. |
| CN(C)c1cccc2c(S(=O)(=O)N[C@@H](Cc3ccccc3)C(=O)N[C@@H](Cc3cnc[nH]3)C(=O)N[C@@H](CCCNC(=N)N)C(N)=O)cccc12 [Dansyl-FHR-amide] (Dansyl-Phe-His-Arg-NH2) | 4 a.u. |
| C[C@@H](O)[C@H](NC(=O)[C@H](Cc1ccc(O)cc1)NS(=O)(=O)c1cccc2c(N(C)C)cccc12)C(=O)N[C@@H](CCCNC(=N)N)C(N)=O [Dansyl-YTR-amide] (Dansyl-Tyr-Thr-Arg-NH2) | 13 a.u. |
| CN(C)c1cccc2c(S(=O)(=O)N[C@@H](CO)C(=O)N[C@@H](CCCNC(=N)N)C(=O)N[C@@H](CCCNC(=N)N)C(N)=O)cccc12 [Dansyl-SRR-amide] (Dansyl-Ser-Arg-Arg-NH2) | 15 a.u. |
| CN(C)c1cccc2c(S(=O)(=O)N[C@@H](CO)C(=O)N[C@@H](Cc3c[nH]cn3)C(=O)N[C@@H](CCCNC(=N)N)C(N)=O)cccc12 [Dansyl-SHR-amide] (Dansyl-Ser-His-Arg-NH2) | 11 a.u. |
| C[C@@H](O)[C@H](NS(=O)(=O)c1cccc2c(N(C)C)cccc12)C(=O)N[C@@H](CC(=O)O)C(=O)N[C@@H](CCCNC(=N)N)C(N)=O [Dansyl-TDR-amide] (Dansyl-Thr-Asp-Arg-NH2) | −27 a.u. |
| C[C@H](NC(=O)[C@H](CCCNC(=N)N)NS(=O)(=O)c1cccc2c(N(C)C)cccc12)C(=O)N[C@@H](CCCNC(=N)N)C(N)=O [Dansyl-RAR-amide] (Dansyl-Arg-Ala-Arg-NH2) | −42 a.u. |
